# From US20090048346A1, “THERAPEUTIC FORMULATIONS” (Myriad Genetics, Incorporated, priority 2004, published 2009)
# Conditions: 10 mg/mL in Cremophor:EtOH (1:1) diluted 1:9 with D5W, room temperature (approximately 25° C.), 38 days
# Method: 10 ml of this solution was diluted 1:9 by the addition of 90 ml of D5W, and the resulting formulation was mixed by inversion until the solution appeared uniformly clear. The resulting mixture—an injectable formulation—was incubated at room temperature (approximately 25° C.) for 38 days.
structure (smiles),measurement,value
O=C(Nc1cc(C(F)(F)F)ccc1Oc1ccc(Cl)c2ccccc12)c1cc(Cl)ccc1O [5-Chloro-N-[2-(4-chloro-naphtalen-1-yloxy)-5-trifluoromethyl-phenyl] -2-hydroxy-benzamide],Stability of compound concentration in the injectable formulation,stable over the entire period
